Test results from patent US4670421A, “Antiatherosclerotic silanes” (American Cyanamid Company, priority 1982, dated 1987).

Experiments:
[1] = biological target: T1, fatty acyl CoA:cholesterol acyl transferase (ACAT) (Rattus norvegicus, UniProt O70536); test: Inhibition of fatty acyl CoA:cholesterol acyl transferase (ACAT) in vitro (rat adrenal supernatant, oleoyl CoA-14C); assay type: biochemical; settings: final concentration 5.2 μg./ml., 37° C.; for inhibition at 5.2 µg/mL: pH 7.4, rat adrenal supernatant; for % Inhibition (ACAT): rat adrenal supernatant, pH 7.4
T1 construct: Rat adrenals were homogenized in 0.2M monobasic potassium phosphate buffer; from tissue; host or cells: rat adrenals, 1000 x g supernatant of the homogenate containing the microsomal fraction
T1 sequence (O70536 1-545): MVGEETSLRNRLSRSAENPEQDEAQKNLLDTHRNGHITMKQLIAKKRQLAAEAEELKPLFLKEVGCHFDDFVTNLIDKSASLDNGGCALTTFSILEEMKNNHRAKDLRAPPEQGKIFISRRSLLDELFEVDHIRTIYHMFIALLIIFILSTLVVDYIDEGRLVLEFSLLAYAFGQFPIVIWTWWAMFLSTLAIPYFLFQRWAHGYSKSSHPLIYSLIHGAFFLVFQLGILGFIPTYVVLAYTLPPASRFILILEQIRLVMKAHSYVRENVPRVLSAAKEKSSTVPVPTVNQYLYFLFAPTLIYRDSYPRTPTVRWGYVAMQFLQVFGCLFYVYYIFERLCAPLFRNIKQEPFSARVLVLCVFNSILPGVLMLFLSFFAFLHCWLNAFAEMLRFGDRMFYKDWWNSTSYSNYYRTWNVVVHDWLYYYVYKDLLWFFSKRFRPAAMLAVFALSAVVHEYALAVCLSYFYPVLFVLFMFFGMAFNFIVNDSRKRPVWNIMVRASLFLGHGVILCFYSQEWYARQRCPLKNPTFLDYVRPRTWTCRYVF
Protocol: (§1) The compounds of the present invention were assayed for two types of biological activity related to their potential use as antiatherosclerotic agents. Compounds were tested in vitro for their ability to inhibit the enzymes fatty acyl CoA:cholesterol acyl transferase (ACAT) and in vivo for serum hypolipidemic activity as measured by their ability to inhibit lipid absorption in rats. The compounds were tested for their ability to inhibit ACAT according to the following procedure:
Rat adrenals were homogenized in 0.2M monobasic potassium phosphate buffer, pH 7.4, and centrifuged at 1000 times gravity for 15 minutes at 5° C. The supernatant, containing the microsomal fraction, served as the source of the cholesterol-esterifying enzyme, fatty acyl CoA:cholesterol acyl transferase (ACAT). A mixture comprising 50 parts of adrenal supernatant, 10 parts of albumin (BSA) (50 mg./ml.), 3 parts of test compound (final concentration 5.2 μg./ml.) and 500 parts of buffer was preincubated at 37° C. for 10 minutes. After treatment with 20 parts of oleoyl CoA(^14 C-0.4 μCi) the mixture was incubated at 37° C. for 10 minutes. A control mixture, omitting the test compound, was prepared and treated in the same manner. The lipids from the incubation mixture were extracted into an organic solvent and separated by thin-layer chromatography. The cholesteryl ester fraction was counted in a scintillation counter. This procedure is a modification of that described by Hashimoto, et al., Life Scie., 12 (Part II), 1-12 (1973).

[2] = Serum hypolipidemic activity in vivo: lowering of serum cholesterol and triglycerides in rats; parameters: species or system male rats COBS, CD, SD strain; settings: oral, 0.1% by weight in diet, 5 days, vs control animals
Protocol: as §1
The compounds were also tested for their ability to lower lipid levels in mammals. The compounds were administered orally admixed with diet (0.1% by weight) to groups of four male rats COBS, CD, SD strain from Charles River Breeding Laboratories, Inc, Wilmington, Mass. A control group of eight rats was maintained on the diet alone; test groups were maintained on the diet plus 0.1% of test compounds by weight. After 5 days treatment, serum cholesterol and triglyceride concentrations were determined by direct enzymatic procedures using a Centrifichem® System 400 autoanalyzer (Union Carbide Co.). Cholesterol concentrations were determined by the combined cholesterol esterase-cholesterol oxidase procedure of Roelschlau et. al., Zeit. Klin. Chem. Lkin. Biochem., 12, 226 (1974). Triglycerides were determined by the combined method of lipase catalyzed hydrolysis of triglycerides to glycerol and free fatty acids [Bucolo, G. and David, H., Clin. Chem. 19, 476 (1973)] and Wahlefeld, A. W., in "Methods of Enzymatic Analysis", Vol. 4, Bergmeyer, H. U., Editor, Academic Press, New York, N.Y. (1974), pp. 1831-1835 and the enzymatic oxidation of the glycerol which leads to the production of colored formazan [Stavropoulos, W. S. and Crouch, R. D., Clin. Chem., 20, No. 7, 857 (1974)]. […] Compounds which produce statistically significant lowering of either sterol or triglycerides are considered to be active.

C[Si](C)(C)CCCNc1ccc(C(=O)O)cc1 [4-[3-(Trimethylsilyl)propylamino]benzoic acid]
inhibition at 5.2 µg/mL [1]: 12%
% Lowering of Serum Sterol [2]: 18%
% Lowering of Serum Triglycerides [2]: 53%

C[Si](C)(C)CCCCCCCCCCCNc1ccc(C(=O)O)cc1 [4-[11-(Trimethylsilyl)undecylamino]benzoic acid]
inhibition at 5.2 µg/mL [1]: 57%
% Lowering of Serum Sterol [2]: 56%
% Lowering of Serum Triglycerides [2]: 75%

C[Si](C)(C)CCCCCCCCCCCCCCNc1ccc(C(=O)O)cc1 [4-[14-(Trimethylsilyl)tetradecylamino]benzoic acid]
inhibition at 5.2 µg/mL [1]: 60%
% Lowering of Serum Sterol [2]: 60%
% Lowering of Serum Triglycerides [2]: 70%

CCOC(=O)c1ccc(NCCC[Si](C)(C)C)cc1 [Ethyl 4-[3-(trimethylsilyl)propylamino]benzoate]
inhibition at 5.2 µg/mL [1]: 59%
% Lowering of Serum Sterol [2]: 23%
% Lowering of Serum Triglycerides [2]: 46%

CCOC(=O)c1ccc(NCCCCCCCCCCC[Si](C)(C)C)cc1 [Ethyl 4-[11-(trimethylsilyl)undecylamino]benzoate]
inhibition at 5.2 µg/mL [1]: 17%
% Lowering of Serum Sterol [2]: 43%
% Lowering of Serum Triglycerides [2]: 22%

CCOC(=O)c1ccc(NCCCCCCCCCCCCCC[Si](C)(C)C)cc1 [Ethyl 4-[14-(trimethylsilyl)tetradecylamino]benzoate]
inhibition at 5.2 µg/mL [1]: 50%
% Lowering of Serum Sterol [2]: 47%
% Lowering of Serum Triglycerides [2]: 38%

C[Si](C)(C)CCCNc1ccc(C(=O)[O-])cc1.[Na+] [Sodium 4-[3-(trimethylsilyl)propylamino]benzoate]
% Inhibition (ACAT) [1]: 23%
% Lowering of Serum Sterol [2]: 36%
% Lowering of Serum Triglycerides [2]: 23%

C[Si](C)(C)CCCCCCCCCCCNc1ccc(C(=O)[O-])cc1.[Na+] [Sodium 4-[11-(trimethylsilyl)undecylamino]benzoate]
% Inhibition (ACAT) [1]: 56%
% Lowering of Serum Sterol [2]: 52%
% Lowering of Serum Triglycerides [2]: 54%

C[Si](C)(C)CCCCCCCCCCCCCCNc1ccc(C(=O)[O-])cc1.[Na+] [Sodium 4-[14-(trimethylsilyl)tetradecylamino]benzoate]
% Inhibition (ACAT) [1]: 62%
% Lowering of Serum Sterol [2]: 61%
% Lowering of Serum Triglycerides [2]: 78%
